The melting point is the temperature of the solid-liquid transition.

This note sets out measurements from patent publication US20070179060A1, “6-(Poly-substituted aryl)-4-aminopicolinates and their use as herbicides” (priority 2006, published 2007).

Each structure is given as a SMILES string.

Series [1] deals with redroot pigweed (Amaranthus retroflexus). Description: Postemergence herbicidal activity. It counts as in vivo. As to conditions: post-emergent, 140 g ai/ha, after 14 days; for pest or weed control at 140 g/ha: Amaranthus retroflexus, post-emergence, 336 h, read-out: % Control AMARE. An outline of the steps:
(§1)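 Compounds were applied postemergence by track sprayer delivering 187 L/ha, using a mixed organic/aqueous carrier containing crop oil concentrate and surfactant; solvent-blank sprays served as controls. Test plants were at the first to second true leaf stage after 7-21 days' greenhouse growth, were sub-irrigated after treatment, and were evaluated by probit analysis.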

Series [2] deals with lambsquarter (Chenopodium album). Description: Postemergence herbicidal activity. It counts as in vivo. The following applies: post-emergent, 140 g ai/ha, after 14 days; for pest or weed control at 140 g/ha: Chenopodium album, post-emergence, 336 h, read-out: % Control CHEAL. An outline of the steps: as §1
The test system of series [3] is velvetleaf (Abutilon theophrasti). The experiment in a line: Postemergence herbicidal activity. It counts as in vivo. As to conditions: post-emergent, 140 g ai/ha, after 14 days; for pest or weed control at 140 g/ha: Abutilon theophrasti, post-emergence, 336 h, read-out: % Control ABUTH. Put shortly:
as §1

Series [4] relates to redroot pigweed (Amaranthus retroflexus). The experiment in a line: Preemergence herbicidal activity. The format is in vivo. As to conditions: pre-emergent, 140 g ai/ha, after 20-22 days; for pest or weed control at 140 g/ha: Amaranthus retroflexus, pre-emergence, 480 h, read-out: % Control AMARE. Put shortly:
(§2)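 Seeds sown in 70:30 loam (pH about 8.1, about 1.5% organic matter) and sand mix, then sprayed preemergence at 187 L/ha with a track sprayer; controls received solvent blank. Pots kept in greenhouse, about 15 h photoperiod, about 23-29° C. day and 22-28° C. night, top-irrigated.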

In series [5] the test system is lambsquarter (Chenopodium album). Description: Preemergence herbicidal activity. It counts as in vivo. The following applies: pre-emergent, 140 g ai/ha, after 20-22 days; for pest or weed control at 140 g/ha: Chenopodium album, pre-emergence, 480 h, read-out: % Control CHEAL. An outline of the steps: as §2
Series [6] deals with velvetleaf (Abutilon theophrasti). Description: Preemergence herbicidal activity. As to conditions: pre-emergent, 140 g ai/ha, after 20-22 days; for pest or weed control at 140 g/ha: Abutilon theophrasti, pre-emergence, 480 h, read-out: % Control ABUTH. It counts as in vivo. An outline of the steps:
as §2

In series [7] the test system is Veronica persica. The experiment in a line: Postemergence herbicidal activity in cereal crops. As to conditions: post-emergent, after 20-22 days; for pest or weed control at 70 g/ha: 70 g ai/ha. It counts as in vivo. The method, then:
(§3) When required to ensure good germination and healthy plants, a fungicide treatment and/or other chemical or physical treatment was applied. The plants were grown for 7-36 days in a greenhouse with an approximate 14 hour photoperiod which was maintained at about 18° C. during the day and 17° C. during the night. Nutrients and water were added on a regular basis and supplemental lighting was provided with overhead metal halide 1000-Watt lamps as necessary. The plants were employed for testing when they reached the second or third true leaf stage. […] The concentrated stock solutions obtained were diluted with 16 mL of an aqueous mixture containing acetone, water, isopropyl alcohol, DMSO, Agri-dex crop oil concentrate, and Triton® X-77 surfactant in a 64.7:26.0:6.7:2.0:0.7:0.01 v/v ratio to obtain spray solutions containing the highest application rates. […] Compound requirements are based upon a 12 mL application volume at a rate of 187 L/ha. Formulated compounds were applied to the plant material with an overhead Mandel track sprayer equipped with a […] nozzles calibrated to deliver 187 L/ha over an application area of 0.503 square meters at a spray height of 18 inches (43 cm) above average plant canopy height. Control plants were sprayed in the same manner with the blank. The treated plants and control plants were placed in a greenhouse as described above and watered by sub-irrigation to prevent wash-off of the test compounds.

Series [8] relates to Galium aparine. Description: Postemergence herbicidal activity in cereal crops. It counts as in vivo. As to conditions: post-emergent, after 20-22 days; for pest or weed control at 70 g/ha: 70 g ai/ha. How it is done:
as §3

Series [9] has as its system Papaver rhoeas. The experiment in a line: Postemergence herbicidal activity in cereal crops. The following applies: post-emergent, after 20-22 days; for pest or weed control at 70 g/ha: 70 g ai/ha. The format is in vivo. The method, then: as §3
For series [10], the system named is barley (Hordeum vulare). The experiment in a line: Postemergence herbicidal activity in cereal crops. As to conditions: crop, post-emergent, after 20-22 days; for pest or weed control at 70 g/ha: 70 g ai/ha. The format is in vivo. How it is done:
as §3

Series [11] relates to Lamium purpureum. Description: Postemergence herbicidal activity in cereal crops. It counts as in vivo. The following applies: post-emergent, after 20-22 days; for pest or weed control at 70 g/ha: 70 g ai/ha. How it is done: as §3
The test system of series [12] is wheat (Triticum aestivum). The experiment in a line: Postemergence herbicidal activity in cereal crops. It counts as in vivo. As to conditions: crop, post-emergent, after 20-22 days; for plant injury at 70 g/ha: 70 g ai/ha. The method, then:
as §3

The mark [13] stands for this setting: Veronica persica, post-emergence, 480 h, read-out: % Control VERPE.
The mark [14] stands for this setting: Galium aparine, post-emergence, 480 h, read-out: % Control GALAP.
The mark [15] stands for this setting: Papaver rhoeas, post-emergence, 480 h, read-out: % Control PAPRH.
The mark [16] stands for this setting: Hordeum, post-emergence, 480 h, read-out: % Control HORVS.
The mark [17] stands for this setting: Lamium purpureum, post-emergence, 480 h, read-out: % Control LAMPU.
The mark [18] stands for this setting: Triticum aestivum, post-emergence, 480 h, read-out: % Control TRZAS.

`COC(=O)c1nc(-c2ccc(Cl)c(SC)c2F)cc(N)c1Cl` [Compound 1]: the “% Control AMARE” value in series [1] and in [4] was 100% each time. Besides, the “% Control CHEAL” value in series [2] is 100%; in [5] it was 90%. In addition, the figures for the “% Control ABUTH” value in [3] and in [6] were 85% and 80%, respectively. In addition, the “% Control VERPE” value in series [7] (35 g ai/ha) stood at 50%. Besides, the “% Control GALAP” value in series [8] (35 g ai/ha) is on record as 85%. For the same compound, the “% Control PAPRH” value in series [9] (35 g ai/ha) is 80%. In addition, the “% Control HORVS” value in series [10] (35 g ai/ha) turned out to be 10%. Moreover, the “% Control LAMPU” value in series [11] (35 g ai/ha) is listed as 80%. Moreover, the “% Control TRZAS” value in [12] (35 g ai/ha) worked out at 5%.
In turn, `COC(=O)c1nc(-c2ccc(Cl)c(OC)c2F)c(F)c(N)c1Cl` [Compound 14, 4-Amino-3-chloro-5-fluoro-6-(4-chloro-2-fluoro-3-methoxyphenyl)pyridine-2-carboxylic acid methyl ester] registered a melting point of 172 to 173 °C. In [1], the pest or weed control at 140 g/ha was found to be 100%. Further, the pest or weed control at 140 g/ha in series [2] is 100%. Besides, in series [3], the pest or weed control at 140 g/ha was found to be 100%. In [4], the pest or weed control at 140 g/ha worked out at 100%. Besides, the pest or weed control at 140 g/ha in series [5] came to 100%. The pest or weed control at 140 g/ha in series [6] came out at 100%. Besides, the pest or weed control at 35 g/ha in series [7] (Veronica persica, post-emergence, 480 h, 35 g ai/ha, read-out: % Control VERPE) was determined as 65%. Besides, the pest or weed control at 35 g/ha in [8] (Galium aparine, post-emergence, 480 h, 35 g ai/ha, read-out: % Control GALAP) is 90%. Also, the pest or weed control at 35 g/ha in series [9] (Papaver rhoeas, post-emergence, 480 h, 35 g ai/ha, read-out: % Control PAPRH) was found to be 95%. Further, the pest or weed control at 35 g/ha in series [10] (Hordeum, post-emergence, 480 h, 35 g ai/ha, read-out: % Control HORVS) amounted to 0%. Besides, the pest or weed control at 35 g/ha in series [11] (Lamium purpureum, post-emergence, 480 h, 35 g ai/ha, read-out: % Control LAMPU) came to 95%. Moreover, the plant injury at 35 g/ha in series [12] (Triticum aestivum, post-emergence, 480 h, 35 g ai/ha, read-out: % Control TRZAS) is 0%.
`COC(=O)c1nc(-c2ccc(Cl)c(N(C)C)c2F)cc(N)c1Cl` [Compound 16, 4-Amino-3-chloro-6-(4-chloro-3-dimethylamino-2-fluorophenyl)pyridine-2-carboxylic acid, methyl ester] displayed a melting point of 104 to 106 °C. In [1], the pest or weed control at 140 g/ha turned out to be 100%. In [2], the pest or weed control at 140 g/ha came to 100%. Besides, in series [3], the pest or weed control at 140 g/ha is 100%. Also, the pest or weed control at 140 g/ha in series [4] worked out at 100%. In addition, in series [5], the pest or weed control at 140 g/ha came out at 100%. Also, the pest or weed control at 140 g/ha in series [6] worked out at 90%. Moreover, the pest or weed control at 17.5 g/ha in series [7] (Veronica persica, post-emergence, 480 h, 17.5 g ai/ha, read-out: % Control VERPE) stood at 95%. Also, the pest or weed control at 17.5 g/ha in series [8] (Galium aparine, post-emergence, 480 h, 17.5 g ai/ha, read-out: % Control GALAP) was 95%. Also, in [9] (Papaver rhoeas, post-emergence, 480 h, 17.5 g ai/ha, read-out: % Control PAPRH), the pest or weed control at 17.5 g/ha stood at 95%. Further, in series [10] (Hordeum, post-emergence, 480 h, 17.5 g ai/ha, read-out: % Control HORVS), the pest or weed control at 17.5 g/ha worked out at 10%. Further, the pest or weed control at 17.5 g/ha in series [11] (Lamium purpureum, post-emergence, 480 h, 17.5 g ai/ha, read-out: % Control LAMPU) was determined as 100%. The plant injury at 17.5 g/ha in series [12] (Triticum aestivum, post-emergence, 480 h, 17.5 g ai/ha, read-out: % Control TRZAS) is 10%.
In turn, `COC(=O)c1nc(-c2cc(N(C)C)c(Cl)cc2F)cc(N)c1Cl` [Compound 26, 4-amino-3-chloro-6-(4-chloro-5-dimethylamino-2-fluorophenyl)pyridine-2-carboxylic acid methyl ester] displayed a melting point of 113 to 115 °C. Besides, the pest or weed control at 140 g/ha in [1] turned out to be 100%. Besides, the pest or weed control at 140 g/ha in series [2] was 100%. Moreover, the pest or weed control at 140 g/ha in series [3] was found to be 100%. Further, the pest or weed control at 140 g/ha in series [4] is 10%. Also, the pest or weed control at 140 g/ha in [5] amounted to 90%. Also, the pest or weed control at 140 g/ha in series [6] is 10%. Further, the pest or weed control at 70 g/ha in [7] (setting [13]) is 40%. In addition, the pest or weed control at 70 g/ha in series [8] (setting [14]) stood at 80%. In addition, the pest or weed control at 70 g/ha in series [9] (setting [15]) came out at 95%. Also, the pest or weed control at 70 g/ha in series [10] (setting [16]) is 10%. The pest or weed control at 70 g/ha in series [11] (setting [17]) is 95%. Moreover, the plant injury at 70 g/ha in series [12] (setting [18]) came out at 0%.
As to `COC(=O)c1nc(-c2cc(OC)c(Cl)cc2F)cc(N)c1Cl` [Compound 43, 4-Amino-3-chloro-6-(4-chloro-2-fluoro-5-methoxyphenyl)pyridine-2-carboxylic acid methyl ester], the pest or weed control at 140 g/ha in series [1] is 100%; in [2], 100%; in [3], 100%; in series [4], 100%; in [5], 100%; in [6] it was 98%. The pest or weed control at 70 g/ha was determined as 30% in series [7] (setting [13]); 65% in series [8] (setting [14]); 85% in series [9] (setting [15]); 5% in series [10] (setting [16]); 99% in series [11] (setting [17]). Besides, the plant injury at 70 g/ha in [12] (setting [18]) came out at 0%.
Regarding `COC(=O)c1nc(-c2c(F)cc(Cl)c(N(C)C)c2F)cc(N)c1Cl` [Compound 50, 4-Amino-3-chloro-6-[4-chloro-3-(dimethylamino)-2,6-difluorophenyl]pyridine-2-carboxylic acid, methyl ester], the pest or weed control at 140 g/ha in series [1], in series [2], in [3], in series [4], in series [5] and in series [6] was 100% in each case. Further, the pest or weed control at 70 g/ha in [7] (setting [13]) turned out to be 60%; in [8] (setting [14]) it was 95%; in series [9] (setting [15]), 95%; in [10] (setting [16]), 0%; in [11] (setting [17]) it was 100%. Moreover, the plant injury at 70 g/ha in series [12] (setting [18]) is 0%.
On to `COc1cc(-c2cc(N)c(Cl)c(C(=O)O)n2)c(F)cc1Cl` [Compound 101, 4-Amino-3-chloro-6-(4-chloro-2-fluoro-5-methoxyphenyl)pyridine-2-carboxylic acid], for which the pest or weed control at 140 g/ha in [1], in series [2], in series [3], in [4], in series [5] and in series [6] was 100% in each case. Also, the pest or weed control at 70 g/ha in series [7] (setting [13]) was 60%; in [8] (setting [14]), 60%; in [9] (setting [15]), 100%; in series [10] (setting [16]), 5%; in series [11] (setting [17]) it was 99%. Moreover, the plant injury at 70 g/ha in series [12] (setting [18]) was found to be 10%.
